Source: US20250171434A1, “SEC61 INHIBITORS AND USE THEREOF” (KEZAR LIFE SCIENCES, INC., priority 2022, published 2025)

How the values were obtained:
[1] = tested on: PD1-ss+10aa/Gaussia Luciferase; experiment: Dox-Induced PD1-ss-Gluc Assay; type: cell-based; details: Flp-In 293 T-REx cells, 24 hours with doxycycline; Table 1; read-out: 24 hr Dox Inducible PD1ssGluc 293FRT/TO: Mean IC50
How it was run: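 Stable Flp-In 293 T-REx cells carried a doxycycline-inducible construct of Gaussia luciferase fused to the PD1 signal sequence plus 10 amino acids. Cells were plated the day before, then treated with compound dilutions in DMSO/media containing doxycycline at 37 °C, 5% CO2.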

[2] = tested on: IL-2-FL/Gaussia Luciferase; experiment: Dox Inducible IL2-FL-Gluc Assay; type: cell-based; details: Table 1; for IC50: Flp-In 293 T-REx cells, 24 hours with doxycycline, read-out: 24 hr Dox Inducible IL2FLGluc 293FRT/TO: Mean IC50; for 24 hr Dox Inducible IL2FLGluc 293FRT/TO: IL2/PD1: ratio of IC50s IL2/PD1
How it was run: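 Flp-In 293 T-REx cells stably carrying doxycycline-inducible full-length IL-2 (aa 1-153) fused at its C-terminus to Gaussia luciferase, selected with hygromycin and blasticidin. Cells were plated the day before, then treated with compounds in DMSO/media containing doxycycline at 37° C, 5% CO2.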

CD47(ss + 10)Gluc = experiment: Dox-Induced CD47-ss-Gluc Assay; type: cell-based; details: Flp-In 293 T-REx cells, 24 hours with doxycycline; Table 1; read-out: 24 hr Dox Inducible CD47(ss + 10)Gluc 293FRT/TO: Mean IC50
[3] = tested on: IL6R-ss+10aa/Gaussia Luciferase; experiment: Dox-induced IL-6R-ss-Gluc Assay; type: cell-based; details: Table 1; for IC50: Flp-In 293 T-REx cells, 24 hours with doxycycline, read-out: 24hr Dox Inducible IL6R(ss + 10)Gluc 293FRT/TO: Mean IC50; for 24hr Dox Inducible IL6R(ss + 10)Gluc 293FRT/TO: IL6R/PD1: ratio of IC50s IL6R/PD1
How it was run: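 Flp-In 293 T-REx cells stably carrying a doxycycline-inducible IL6R signal sequence+10 aa fused to Gaussia luciferase. Cells plated the day before; compound dilutions added in DMSO/media containing doxycycline and incubated at 37 °C, 5% CO2.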

[4] = tested on: multiple myeloma cell line NCI-H929; experiment: H929 Cell Viability Assay; type: cell-based, human; details: Homo sapiens; NCI-H929 cells, 48 hours, Celltiter-Glo; read-out: 48 hr H929 Viability Celltiter-Glo: Mean EC50
How it was run: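 NCI-H929 cells, resuspended in RPMI 1640 with 10% FBS and 2 mM glutamine, were treated with compound dilutions in DMSO/media and incubated 48 hours at 37° C, 5% CO2. Viability was read by CellTiter-Glo luminescence. Compounds drawn without stereochemistry were tested as stereoisomer mixtures.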

[5] = tested on: multiple myeloma cell line U266B1; experiment: U266 Cell Viability Assay; type: cell-based; details: Homo sapiens, U-266; U266B1 cells, 48 hours, Celltiter-Glo; read-out: 48 hr U266 Viability Celltiter-Glo: Mean EC50
How it was run: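 Cells grown in RPMI 1640 with 10% FBS, 2 mM glutamine and penicillin/streptomycin were exposed to compound dilutions in DMSO/media for 48 hours at 37° C., 5% CO2. Viability was read by CellTiter-Glo luminescence. Undefined stereocentres mean data for stereoisomer mixtures.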

[6] = Liver Microsome Stability Assay, mouse; type: in vitro ADME; details: mouse liver microsomes 1.0 mg/mL, 1.0 uM compound, 37° C., 1 mM NADPH
How it was run: (§1)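 Incubations at 37° C contain 1.0 mg/mL liver microsomes and 1.0 uM compound, with 1 mM NADPH present or absent. Time points are 0 and 30 minutes.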

[7] = Liver Microsome Stability Assay, rat; type: in vitro ADME; details: rat liver microsomes 1.0 mg/mL, 1.0 uM compound, 37° C., 1 mM NADPH
How it was run: as §1

[8] = Liver Microsome Stability Assay, monkey; type: in vitro ADME; details: monkey liver microsomes 1.0 mg/mL, 1.0 uM compound, 37° C., 1 mM NADPH
How it was run: as §1

[9] = Liver Microsome Stability Assay, human; type: in vitro ADME; details: human liver microsomes 1.0 mg/mL, 1.0 uM compound, 37° C., 1 mM NADPH
How it was run: as §1

Compound | IC50 [1] [µM] | IC50 [2] [µM] | 24 hr Dox Inducible IL2FLGluc 293FRT/TO: IL2/PD1 [2] | IC50 (CD47(ss + 10)Gluc) [µM] | IC50 [3] [µM] | 24hr Dox Inducible IL6R(ss + 10)Gluc 293FRT/TO: IL6R/PD1 [3] | EC50 [4] [µM] | EC50 [5] [µM] | Liver Microsome Stability (Multiple Species): Mouse - % Remaining after 30 min w/ NADPH (%) [6] [%] | Liver Microsome Stability (Multiple Species): Rat - % Remaining after 30 min w/ NADPH (%) [7] [%] | Liver Microsome Stability (Multiple Species): Monkey - % Remaining after 30 min w/ NADPH (%) [8] [%] | Liver Microsome Stability (Multiple Species): Human - % Remaining after 30 min w/ NADPH (%) [9] [%]
[2H]C([2H])([2H])Oc1cc(C(=O)Nc2nc(/C=C/c3ncn(C4CC4)c3Cl)cs2)n(Cc2ccnc(F)c2F)c1 [Compound A22, (E)-N-(4-(2-(5-chloro-1-cyclopropyl-1H-imidazol-4-yl)vinyl)thiazol-2-yl)-1-((2,3-difluoropyridin-4-yl)methyl)-4-(methoxy-d3)-1H-pyrrole-2-carboxamide] | 0.034 | > 25 | >740 | 5.53 | > 25 | >741 | > 25 | > 25 | 69 | 33 | 9 | 16
Cc1c(Cn2cc(OC(F)F)cc2C(=O)Nc2nc(/C=C/c3ncn(C4CC4)c3Cl)cs2)ccnc1F [Compound A23, (E)-N-(4-(2-(5-chloro-1-cyclopropyl-1H-imidazol-4-yl)vinyl)thiazol-2-yl)-4-(difluoromethoxy)-1-((2-fluoro-3-methylpyridin-4-yl)methyl)-1H-pyrrole-2-carboxamide] | 0.037 | > 25 | >540 | > 25 | > 25 | >680 | > 25 | > 25 | 55 | 31 | 8 | 20
Cc1cnc(F)cc1Cn1cc(OC(F)F)cc1C(=O)Nc1nc(/C=C/c2ncn(C3CC3)c2Cl)cs1 [Compound A24, (E)-N-(4-(2-(5-chloro-1-cyclopropyl-1H-imidazol-4-yl)vinyl)thiazol-2-yl)-4-(difluoromethoxy)-1-((2-fluoro-5-methylpyridin-4-yl)methyl)-1H-pyrrole-2-carboxamide] | 0.008 | 11.5 | 1100.0 | 5.53 | 9.97 | 1283 | > 25 | > 25 | 77 | 30 | 12 | 20
Cc1cnc(F)c(C)c1Cn1cc(OC(F)F)cc1C(=O)Nc1nc(/C=C/c2ncn(C3CC3)c2Cl)cs1 [Compound A26, (E)-N-(4-(2-(5-chloro-1-cyclopropyl-1H-imidazol-4-yl)vinyl)thiazol-2-yl)-4-(difluoromethoxy)-1-((2-fluoro-3,5-dimethylpyridin-4-yl)methyl)-1H-pyrrole-2-carboxamide] | 0.877 | > 25 | >22 | > 25 | > 25 | 28 | > 25 | > 25 | 70 | 40 | 16 | 29
